Assays:
[1] = test system: cysteine proteases in DC2.4 dendritic cell extracts; assay: Direct labeling of DC2.4 total cell extracts with probes (affinity blot / autoradiography); assay type: binding
Procedure: Tissues were dounce-homogenized in buffer A (50 mM Tris pH 5.5, 1 mM DTT, 5 mM MgCl2, 250 mM sucrose) and extracts centrifuged at 1,100×g for 10 min at 4° C. The resulting supernatant was centrifuged at 22,000×g for 30 min at 4° C. and final supernatants used for all labeling experiments. Cells were lysed using glass beads (<104 microns) in buffer A and supernatants centrifuged for 15,000×g for 15 min at 4° C. The total protein concentration of the final supernatants (soluble) was determined by BCA protein quantification (Pierce).
Equivalent amounts of radioactive inhibitor stock solutions (approx. 10^6 cpm per sample) were used for all labeling experiments. Samples of lysates (100 μg total protein in 100 μL buffer; 50 mM Tris pH 5.5, 5 mM MgC12, 2 mM DTT) were labeled for 1 hour at 25° C. unless noted otherwise. Samples were quenched by dilution of 4×SDS sample buffer to 1×(for 1D SDS-PAGE) or by dissolving urea to a final concentration of 9.5 M (for 2D SDS-PAGE).
Quenched DCG-04 labeled samples were separated by SDS/PAGE […] and transferred to nitrocellulose using semi-dry apparatus. Membranes were blocked using phosphate buffered saline (PBS) and 5% (w/v) dry milk for 30 min at 25° C. Blots were washed briefly with PBS/0.2% Tween (PBS-Tween) and treated with avidin-horseradish peroxidase conjugate (VectaStain) in PBS-Tween for 30 min. at 25° C. […]

[2] = test system: papain family proteases in rat liver; assay: Affinity purification and identification of DCG-04 labeled proteases from rat liver; assay type: binding; conditions: single-step affinity purification, LC-MS-TOF CID
Procedure: Protein lysates prepared in buffer A (50 mM Acetate buffer, 5 mM DTT, 0.1% Triton X-100) were incubated with […] for 1.5 hours at room temperature. After incubation the protein lysate was passed through a PD10 column pre-equilibrated with buffer B (50 mM Tris-Base 7.4, 150 mM NaCl) and proteins were eluted with the same buffer. SDS was added to eluted proteins to a final concentration of 0.5% and the solution boiled for 10 minutes, diluted 2.5 fold with buffer B (to reduce SDS concentration to 0.2%) and incubated with […] of pre-washed Streptavidin beads for 1 hour at room temperature. Beads were washed 5 times with buffer B, and bound proteins were eluted by boiling for 10 minutes in the presence of […]. For 2D analysis, samples in SDS sample buffer were diluted 1:1 with IEF sample buffer ([…], 5% BME, 2% NP-40, 1.6% pH 5-7 ampholines and 0.4% pH 3.5-10 ampholines) and pure NP-40 was added (25% of volume of sample). Samples were applied to IEF tube gels and electrophoresed at 1000V for 13 hours followed by separation in the second dimension on 15% SDS-PAGE gels. […] The mass range recorded in survey acquisitions was m/z 300-1400. […] All the data were measured using a two point external calibration. […]

[3] = test system: multiple proteases in DC2.4 lysates; assay: Competition labeling in DC2.4 lysates with 125I-DCG-04; assay type: biochemical; conditions: for potency and selectivity, competition of 125I-DCG-04 labeling of multiple polypeptides: 50 μM library member, DC2.4 lysates, pH 5.5
Procedure: Lysates from the dendritic cell line DC2.4 were prepared at pH 5.5 as described above. Purified cathepsin H was purchased from Calbiochem (San Diego, Calif.). Samples of lysates (100 μg total protein in 100 μL buffer B; 50 mM Tris pH 5.5, 5 mM MgC12, 2 mM DTT) or purified cathepsin H (1 μg protein in 100 μL buffer A) were preincubated with 50 μM of each library member (diluted from 5 mM DMSO stocks) for 2 hrs at room temperature. […] Samples were quenched by the addition of 4×sample buffer to 1×followed by boiling for 5 minutes. Samples were analyzed by SDS-PAGE followed by autoradiography.

[4] = test system: cysteine proteases in rat kidney; assay: Affinity purification and identification of DCG-04 modified proteins from rat kidney; assay type: binding; conditions: monomeric-avidin purification, mass spectrometry
Procedure: A soluble fraction of rat kidney lysate (80 mg total protein) was diluted into anion exchange starting buffer (50 mM Tris, 50 mM NaCl, pH 9.0). The lysate was applied to a […] anion exchange column (Amersham Pharmacia Biotech) and eluted using a linear gradient of 0.05-1M NaCl, pH 9. An aliquot from each fraction (50 μL) was incubated with 50 μM DCG-04 at 25° C. for 1hr and analyzed on a 12.5% SDS/PAGE gel followed by affinity blotting as described above. The fractions containing peak labeling of the 25 kD-30 kD bands were pooled and DCG-04 was added to a final concentration of 50 μM. Pools were incubated at 25° C. for 2 hours and then 12 hours at 4° C. Unbound inhibitor was removed and buffer was exchanged with PBS using a PD-10 column (Pharmacia). Samples were applied to a monomeric-avidin column (1 ml bed volume; Pierce) and the column was washed with 6×1 ml fractions of 1M NaCl. Bound proteins were eluted with 0.5 ml fractions of 2 mM Biotin/100 mM NH4HCO3 buffer. All wash and eluent fractions were analyzed by SDS/PAGE and silver staining. The fractions containing the labeled 25-30 kD bands were pooled, the volume reduced by lyophilization and solid urea added to 9.5 M along with BME to 5%, NP-40 to 2%, pH 5-7 ampholytes to 1.6% and pH 3.5-10 ampholytes to 0.4%. […]

[5] = target: T1, cathepsin B (Mus musculus, UniProt P10605); assay: Competition labeling in DC2.4 lysates with cathepsin B-specific 125I-MB-074; assay type: biochemical; conditions: P2 library preincubation
T1 construct: This method allowed analysis of cathepsin B specificity in crude extracts; endogenous in cells; host or cells: DC2.4 dendritic cell line
T1 sequence (P10605 80-333 limits assumed): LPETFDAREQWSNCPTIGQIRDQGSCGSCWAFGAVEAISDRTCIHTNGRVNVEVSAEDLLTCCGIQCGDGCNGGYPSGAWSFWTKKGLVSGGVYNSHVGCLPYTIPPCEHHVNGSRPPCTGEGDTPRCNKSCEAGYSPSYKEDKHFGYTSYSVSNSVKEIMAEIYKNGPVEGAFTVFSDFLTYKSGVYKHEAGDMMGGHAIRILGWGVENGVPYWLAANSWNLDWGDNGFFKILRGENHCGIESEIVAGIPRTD
Procedure: Lysates from the dendritic cell line DC2.4 were prepared at pH 5.5 as described above. Purified cathepsin H was purchased from Calbiochem (San Diego, Calif.). Samples of lysates (100 μg total protein in 100 μL buffer B; 50 mM Tris pH 5.5, 5 mM MgC12, 2 mM DTT) or purified cathepsin H (1 μg protein in 100 μL buffer A) were preincubated with 50 μM of each library member (diluted from 5 mM DMSO stocks) for 2 hrs at room temperature. Samples were then labeled by addition of either ^125I-DCG-04 or ^125I-MB-074 to each sample followed by further incubation at room temperature for 1 hour. Samples were quenched by the addition of 4×sample buffer to 1×followed by boiling for 5 minutes. Samples were analyzed by SDS-PAGE followed by autoradiography.

[6] = test system: papaine family of cysteine proteases; conditions: literature; cited from earlier work
[7] = test system: invasive cells; conditions: treatment of invasive cells, literature; cited from earlier work
[8] = test system: papain family cysteine proteases in DC2.4 cells; assay: In situ fluorescence labeling of DC2.4 cells; assay type: cell-based; conditions: pre-treatment 10 mM for 1 hour
Procedure: Dendritic cells (DC2.4) were plated on a 24-well dish (10^5 cells/well) embedded with sterile microscope cover slips, in RPMI medium containing 10% FBS. After 16 hours, cells were washed with 1 ml TC-199 medium and incubated with […] of Bodipy-DCG-04 in TC-199 for 12 hours at 37° C. Cells were washed 3 times with 1 ml TC-199 and incubated for 5 hr in probe-free medium. Subsequently, cells were either lysed in buffer A and analyzed on a 12.5% SDS-PAGE using a fluorescent scanner or viewed under a fluorescent microscope.

Compound | potency and selectivity, competition of 125I-DCG-04 labeling of multiple polypeptides [3] | activity, competition of 125I-MB-074 labeling of cathepsin B [5] | other results
CC(C)CC(NC(=O)C1OC1C(=O)O)C(=O)NCCc1ccc(O)cc1 (stereo not shown) [JPM-565, reference compound] |  |  | labeling as detected by affinity blotting ([1]; non-radiolabeled compound, DC2.4 extracts): no labeling
DCG-04 | highest activity and the lowest amount of specificity | highest activity | proteases identified via probe [2]: cathepsins Z, H, C and J; active cysteine proteases identified via probe [4]: cathepsin B, H, and L; labeling of major 20-40 kDa species after preheating of samples ([1]; preheated to 100° C. for 1 min before adding compound): lost upon heat denaturation
N[C@@H](Cc1ccc(O)cc1)C(=O)O [tyrosine] | specificity for polypeptides 2, 3, 4, and 5 | highest activity followed by the aromatic amino acids | 
N[C@@H](Cc1ccccc1)C(=O)O [phenylalanine] | specificity for polypeptides 2, 3, 4, and 5 | highest activity followed by the aromatic amino acids | 
NCC(=O)O [glycine] | relatively poor activity overall, they showed some degree of specificity against polypeptide 2 |  | 
N[C@@H](CC(=O)O)C(=O)O [aspartic acid] | relatively poor activity overall, they showed some degree of specificity against polypeptide 2 |  | 
CC[C@H](C)[C@H](N)C(=O)O [isoleucine] | highest activity and the lowest amount of specificity | highest activity | 
CC(C)C[C@H](NC(=O)[C@H]1O[C@@H]1C(=O)O)C(=O)NCCCCN=C(N)N [E-64] |  |  | reactivity toward cysteine proteases [6]: broadly reactive; effect on cellular invasion [7]: block in cellular invasion into a synthetic matrix; competition of 125I-DCG-04 labeling ([3]; increasing concentrations, preincubation, DC2.4 extracts): effectively competed; inhibition of in situ protease labeling by green-DCG-04 [8]: completely inhibited
CCCC[C@H](N)C(=O)O [norleucine] | highest activity and the lowest amount of specificity | highest activity | 
CC(C)[C@H](N)C(=O)O [valine containing compound] | competed for polypeptides 1, 2 and cathepsin B but had little effect on the remaining species | highest activity | 

Source: patent US20020150961A1, “Activity-dependent cysteine protease profiling reagent” (The Regents of the University of California Office of …, priority 2000, published 2002)
